Test results as given in publication PMC10176470, “Engaging a Non-catalytic Cysteine Residue Drives Potent and Selective Inhibition of Caspase-6” (Journal of the American Chemical Society, 2023).

How the values were obtained:
Assay in all cases: SILAC proteomics / in-gel fluorescence, competition of probe 13-t labeling by 3a
[1] = target: T1, proteins of HEK293T cells transiently overexpressing caspase-6 (Homo sapiens, UniProt O60506)
T1 sequence (O60506 1-623): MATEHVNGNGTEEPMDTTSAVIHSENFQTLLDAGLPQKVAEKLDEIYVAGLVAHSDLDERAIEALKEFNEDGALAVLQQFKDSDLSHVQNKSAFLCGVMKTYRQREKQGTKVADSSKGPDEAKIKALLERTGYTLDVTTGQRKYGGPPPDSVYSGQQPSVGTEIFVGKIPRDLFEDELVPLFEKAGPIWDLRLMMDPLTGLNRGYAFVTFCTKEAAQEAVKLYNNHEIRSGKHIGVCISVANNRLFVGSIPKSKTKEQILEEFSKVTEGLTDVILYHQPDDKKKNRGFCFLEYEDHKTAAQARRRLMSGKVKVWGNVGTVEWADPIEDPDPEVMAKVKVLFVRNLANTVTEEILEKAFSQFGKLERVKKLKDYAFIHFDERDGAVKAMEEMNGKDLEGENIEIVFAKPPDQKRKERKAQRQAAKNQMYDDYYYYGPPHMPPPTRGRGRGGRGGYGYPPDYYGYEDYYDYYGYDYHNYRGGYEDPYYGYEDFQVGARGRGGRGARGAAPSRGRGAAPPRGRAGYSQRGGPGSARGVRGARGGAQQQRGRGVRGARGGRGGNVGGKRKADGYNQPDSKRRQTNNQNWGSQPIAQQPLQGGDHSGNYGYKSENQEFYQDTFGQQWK

[2] = target: proteins of HEK293T cells transiently overexpressing caspase-6 (Homo sapiens, UniProt P06733); details: Comp; protein ENO1 P06733
Sequence of proteins of HEK293T cells transiently overexpressing caspase-6 (Homo sapiens, UniProt P06733) (P06733 whole entry): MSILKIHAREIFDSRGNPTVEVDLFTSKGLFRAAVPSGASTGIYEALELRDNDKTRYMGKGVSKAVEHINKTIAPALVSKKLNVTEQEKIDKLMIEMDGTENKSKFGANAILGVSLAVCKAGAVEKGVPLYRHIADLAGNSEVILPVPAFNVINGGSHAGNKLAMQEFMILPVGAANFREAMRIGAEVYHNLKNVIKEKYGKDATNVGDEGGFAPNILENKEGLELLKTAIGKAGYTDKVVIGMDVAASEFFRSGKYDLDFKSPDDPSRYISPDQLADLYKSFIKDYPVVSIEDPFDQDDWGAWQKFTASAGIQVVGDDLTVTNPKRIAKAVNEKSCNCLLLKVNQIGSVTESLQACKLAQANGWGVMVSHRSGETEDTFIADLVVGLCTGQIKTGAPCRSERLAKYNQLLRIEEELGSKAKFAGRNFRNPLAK

[3] = target: proteins of HEK293T cells transiently overexpressing caspase-6 (Homo sapiens, UniProt P10809); details: Comp; protein HSPD1 P10809
Sequence of proteins of HEK293T cells transiently overexpressing caspase-6 (Homo sapiens, UniProt P10809) (P10809 27-573): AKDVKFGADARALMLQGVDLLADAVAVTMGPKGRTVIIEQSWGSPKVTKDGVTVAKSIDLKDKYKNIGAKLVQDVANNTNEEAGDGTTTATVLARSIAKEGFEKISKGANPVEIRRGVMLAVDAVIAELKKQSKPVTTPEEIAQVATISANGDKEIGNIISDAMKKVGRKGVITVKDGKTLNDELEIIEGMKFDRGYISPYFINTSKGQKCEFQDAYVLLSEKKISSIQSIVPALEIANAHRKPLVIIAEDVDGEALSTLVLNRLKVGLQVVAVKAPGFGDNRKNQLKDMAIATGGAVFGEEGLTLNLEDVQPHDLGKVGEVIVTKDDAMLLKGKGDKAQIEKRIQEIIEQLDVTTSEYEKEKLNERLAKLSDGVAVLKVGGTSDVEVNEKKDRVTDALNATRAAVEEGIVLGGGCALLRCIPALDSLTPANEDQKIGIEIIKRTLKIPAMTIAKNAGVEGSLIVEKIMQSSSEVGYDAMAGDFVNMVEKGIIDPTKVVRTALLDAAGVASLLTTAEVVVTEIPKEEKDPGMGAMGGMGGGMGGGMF

[4] = target: proteins of HEK293T cells transiently overexpressing caspase-6 (Homo sapiens, UniProt P13797); details: Comp; protein PLS3 P13797
Sequence of proteins of HEK293T cells transiently overexpressing caspase-6 (Homo sapiens, UniProt P13797) (P13797 whole entry): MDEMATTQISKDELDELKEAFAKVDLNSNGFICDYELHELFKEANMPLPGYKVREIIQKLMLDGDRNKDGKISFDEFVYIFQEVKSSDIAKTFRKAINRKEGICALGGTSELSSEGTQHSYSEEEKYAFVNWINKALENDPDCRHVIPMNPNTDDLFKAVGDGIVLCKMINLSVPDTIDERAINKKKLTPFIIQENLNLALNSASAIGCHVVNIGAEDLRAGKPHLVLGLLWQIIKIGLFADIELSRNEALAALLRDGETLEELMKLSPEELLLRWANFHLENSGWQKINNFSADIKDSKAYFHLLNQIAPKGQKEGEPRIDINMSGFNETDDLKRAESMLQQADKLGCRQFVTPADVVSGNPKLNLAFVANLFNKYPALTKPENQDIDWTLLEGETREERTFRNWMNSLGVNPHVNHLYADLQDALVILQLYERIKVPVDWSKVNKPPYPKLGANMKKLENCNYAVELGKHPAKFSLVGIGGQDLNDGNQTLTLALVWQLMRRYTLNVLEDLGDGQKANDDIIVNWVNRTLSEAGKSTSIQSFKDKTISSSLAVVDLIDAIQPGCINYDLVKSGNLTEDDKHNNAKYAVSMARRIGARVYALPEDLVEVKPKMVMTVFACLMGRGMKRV

[5] = target: proteins of HEK293T cells transiently overexpressing caspase-6 (Homo sapiens, UniProt P35998); details: Comp; protein PSMC2 P35998
Sequence of proteins of HEK293T cells transiently overexpressing caspase-6 (Homo sapiens, UniProt P35998) (P35998 whole entry): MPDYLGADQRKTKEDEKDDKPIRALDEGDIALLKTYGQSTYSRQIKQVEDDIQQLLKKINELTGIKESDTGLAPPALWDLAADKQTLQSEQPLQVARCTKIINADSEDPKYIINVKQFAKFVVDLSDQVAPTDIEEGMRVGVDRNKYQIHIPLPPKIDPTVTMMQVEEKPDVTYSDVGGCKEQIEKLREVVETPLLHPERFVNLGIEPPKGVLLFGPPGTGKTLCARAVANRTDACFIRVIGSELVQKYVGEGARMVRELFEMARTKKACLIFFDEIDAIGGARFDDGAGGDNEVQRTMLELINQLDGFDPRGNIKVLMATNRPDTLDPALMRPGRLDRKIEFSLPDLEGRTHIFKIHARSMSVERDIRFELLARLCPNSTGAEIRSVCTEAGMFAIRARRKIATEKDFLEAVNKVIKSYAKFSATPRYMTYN

[6] = target: proteins of HEK293T cells transiently overexpressing caspase-6 (Homo sapiens, UniProt P36405)
Sequence of proteins of HEK293T cells transiently overexpressing caspase-6 (Homo sapiens, UniProt P36405) (P36405 whole entry): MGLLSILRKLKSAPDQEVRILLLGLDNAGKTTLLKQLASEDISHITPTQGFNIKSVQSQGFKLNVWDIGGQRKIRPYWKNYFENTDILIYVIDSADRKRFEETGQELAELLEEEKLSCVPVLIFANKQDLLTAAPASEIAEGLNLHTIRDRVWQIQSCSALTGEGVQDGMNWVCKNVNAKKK

[7] = target: proteins of HEK293T cells transiently overexpressing caspase-6 (Homo sapiens, UniProt P36578); details: Comp; protein RPL4 P36578
[8] = target: proteins of HEK293T cells transiently overexpressing caspase-6 (Homo sapiens, UniProt P38646); details: Comp; protein HSPA9 P38646
Sequence of proteins of HEK293T cells transiently overexpressing caspase-6 (Homo sapiens, UniProt P38646) (P38646 47-679): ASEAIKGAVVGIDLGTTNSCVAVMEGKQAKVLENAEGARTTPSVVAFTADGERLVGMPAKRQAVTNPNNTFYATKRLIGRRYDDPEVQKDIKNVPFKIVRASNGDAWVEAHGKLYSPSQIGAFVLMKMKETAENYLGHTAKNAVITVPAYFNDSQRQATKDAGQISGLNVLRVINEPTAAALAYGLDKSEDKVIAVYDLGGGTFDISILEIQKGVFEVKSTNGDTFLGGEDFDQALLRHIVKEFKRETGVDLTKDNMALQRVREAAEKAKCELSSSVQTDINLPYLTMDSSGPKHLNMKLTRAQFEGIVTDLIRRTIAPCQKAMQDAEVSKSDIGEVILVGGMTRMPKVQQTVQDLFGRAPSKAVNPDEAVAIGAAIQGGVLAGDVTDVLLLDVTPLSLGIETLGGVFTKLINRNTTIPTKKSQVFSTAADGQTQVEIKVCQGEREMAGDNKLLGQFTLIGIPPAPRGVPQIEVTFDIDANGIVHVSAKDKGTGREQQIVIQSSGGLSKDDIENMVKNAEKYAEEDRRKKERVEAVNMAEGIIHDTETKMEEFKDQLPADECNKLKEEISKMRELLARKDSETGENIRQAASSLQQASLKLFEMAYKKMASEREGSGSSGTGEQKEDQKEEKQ

[9] = target: T2, proteins of HEK293T cells transiently overexpressing caspase-6 (Homo sapiens, UniProt P54136)
T2 sequence (P54136 1-660): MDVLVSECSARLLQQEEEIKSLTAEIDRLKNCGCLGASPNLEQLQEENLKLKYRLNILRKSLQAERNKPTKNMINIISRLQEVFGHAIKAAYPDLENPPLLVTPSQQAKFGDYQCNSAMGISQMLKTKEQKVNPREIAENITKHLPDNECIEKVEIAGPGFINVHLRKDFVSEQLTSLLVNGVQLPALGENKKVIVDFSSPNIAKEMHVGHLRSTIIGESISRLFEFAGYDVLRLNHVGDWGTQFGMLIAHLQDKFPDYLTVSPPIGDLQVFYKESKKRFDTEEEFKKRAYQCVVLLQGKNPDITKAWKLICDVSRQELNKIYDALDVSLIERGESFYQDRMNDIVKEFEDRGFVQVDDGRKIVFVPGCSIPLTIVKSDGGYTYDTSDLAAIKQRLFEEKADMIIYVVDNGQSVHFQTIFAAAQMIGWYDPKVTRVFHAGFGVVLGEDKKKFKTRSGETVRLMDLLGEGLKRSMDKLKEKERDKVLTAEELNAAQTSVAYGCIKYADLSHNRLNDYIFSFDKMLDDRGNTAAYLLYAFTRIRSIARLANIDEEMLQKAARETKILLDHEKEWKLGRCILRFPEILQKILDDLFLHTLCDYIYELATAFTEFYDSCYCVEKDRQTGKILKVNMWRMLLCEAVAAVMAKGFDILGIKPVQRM

[10] = target: proteins of HEK293T cells transiently overexpressing caspase-6 (Homo sapiens, UniProt P60842); details: Comp; protein EIF4A1 P60842
Sequence of proteins of HEK293T cells transiently overexpressing caspase-6 (Homo sapiens, UniProt P60842) (P60842 whole entry): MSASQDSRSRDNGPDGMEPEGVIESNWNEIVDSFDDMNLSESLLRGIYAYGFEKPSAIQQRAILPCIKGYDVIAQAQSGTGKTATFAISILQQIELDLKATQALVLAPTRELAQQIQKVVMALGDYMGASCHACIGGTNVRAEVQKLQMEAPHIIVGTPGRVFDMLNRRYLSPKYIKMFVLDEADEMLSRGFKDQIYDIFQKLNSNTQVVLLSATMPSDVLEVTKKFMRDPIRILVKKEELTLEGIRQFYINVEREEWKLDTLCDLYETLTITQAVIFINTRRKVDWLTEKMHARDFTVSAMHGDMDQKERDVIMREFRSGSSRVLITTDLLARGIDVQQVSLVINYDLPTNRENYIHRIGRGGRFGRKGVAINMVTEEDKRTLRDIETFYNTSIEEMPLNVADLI

[11] = target: proteins of HEK293T cells transiently overexpressing caspase-6 (Homo sapiens, UniProt P63244); details: Comp; protein GNB2L1 P63244
[12] = target: proteins of HEK293T cells transiently overexpressing caspase-6 (Homo sapiens, UniProt Q15185); details: Comp; protein PTGES3 Q15185
Sequence of proteins of HEK293T cells transiently overexpressing caspase-6 (Homo sapiens, UniProt Q15185) (Q15185 whole entry): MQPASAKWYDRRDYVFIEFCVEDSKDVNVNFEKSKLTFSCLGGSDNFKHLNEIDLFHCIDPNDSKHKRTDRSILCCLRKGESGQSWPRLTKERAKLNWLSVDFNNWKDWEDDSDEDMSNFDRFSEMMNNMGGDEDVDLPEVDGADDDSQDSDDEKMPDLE

[13] = target: proteins of HEK293T cells transiently overexpressing caspase-6 (Homo sapiens, UniProt Q9Y2X3); details: Comp; protein NOP58 Q9Y2X3
Sequence of proteins of HEK293T cells transiently overexpressing caspase-6 (Homo sapiens, UniProt Q9Y2X3) (Q9Y2X3 whole entry): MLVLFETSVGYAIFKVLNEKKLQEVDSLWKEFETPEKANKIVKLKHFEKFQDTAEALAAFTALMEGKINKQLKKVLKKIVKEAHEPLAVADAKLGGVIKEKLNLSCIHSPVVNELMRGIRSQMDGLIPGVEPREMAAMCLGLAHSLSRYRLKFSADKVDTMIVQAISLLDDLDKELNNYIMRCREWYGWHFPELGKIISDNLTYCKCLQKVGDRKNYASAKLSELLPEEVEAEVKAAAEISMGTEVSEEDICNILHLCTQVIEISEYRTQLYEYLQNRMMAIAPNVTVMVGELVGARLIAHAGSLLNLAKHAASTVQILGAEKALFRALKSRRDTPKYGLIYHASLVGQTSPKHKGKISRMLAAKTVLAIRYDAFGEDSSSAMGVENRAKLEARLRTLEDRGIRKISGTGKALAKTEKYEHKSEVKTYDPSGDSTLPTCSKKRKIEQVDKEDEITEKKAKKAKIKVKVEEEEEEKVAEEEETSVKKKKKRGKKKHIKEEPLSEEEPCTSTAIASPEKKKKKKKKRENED

[14] = protein SYNCRIP (O60506), Exp Comp, analysis C6, p 0.0625, 5 peptides
[15] = protein ARL3 (P36405), Exp Comp, analysis C6, p 0.1250, 5 peptides
[16] = protein RARS (P54136), Exp Comp, analysis C6, p 0.0312, 7 peptides

## C=CS(=O)(=O)N1C[C@H](C(=O)Nc2ccc(OC(F)(F)F)cc2)C[C@@H](c2ccccc2)C1 [3a]
[1]; Comp, protein SYNCRIP O60506
  enrich.exp.med: 1.48
[1]; [14]
  enrich.exp.med.lin: 2.7903
  enrich.exp.med.log2: 1.48
[2]
  enrich.exp.med: 0.6321
[3]
  enrich.exp.med: 0.6402
[4]
  enrich.exp.med: 0.6361
[5]
  enrich.exp.med: 0.924
[6]; Comp, protein ARL3 P36405
  enrich.exp.med: 1.0898
[6]; [15]
  enrich.exp.med.lin: 2.128
  enrich.exp.med.log2: 1.0898
[7]
  enrich.exp.med: 0.5872
[8]
  enrich.exp.med: 0.6522
[9]; Comp, protein RARS P54136
  enrich.exp.med: 1.077
[9]; [16]
  enrich.exp.med.lin: 2.11
  enrich.exp.med.log2: 1.077
[10]
  enrich.exp.med: 0.5985
[11]
  enrich.exp.med: 0.7266
[12]
  enrich.exp.med: 0.8422
[13]
  enrich.exp.med: 0.7213
